Experimental data reported in US10654834B2 (Venenum Biodesign, LLC, priority 2016, dated 2020).

Columns and labels:
human TGR5 receptor = biological target: T1, human TGR5 receptor (Homo sapiens, UniProt Q8TDU6); test: Human TGR5 cAMP production assay (hTGR5-CHO cells, DiscoveRx cAMP XS+ kit); assay type: cell-based; conditions: luminescent cAMP assay, read-out: Human TGR5 Lum. cAMP Activity (EC50)
T1 construct: host or cells: CHO-K1 (hTGR5-CHO)
T1 sequence (Q8TDU6 1-330): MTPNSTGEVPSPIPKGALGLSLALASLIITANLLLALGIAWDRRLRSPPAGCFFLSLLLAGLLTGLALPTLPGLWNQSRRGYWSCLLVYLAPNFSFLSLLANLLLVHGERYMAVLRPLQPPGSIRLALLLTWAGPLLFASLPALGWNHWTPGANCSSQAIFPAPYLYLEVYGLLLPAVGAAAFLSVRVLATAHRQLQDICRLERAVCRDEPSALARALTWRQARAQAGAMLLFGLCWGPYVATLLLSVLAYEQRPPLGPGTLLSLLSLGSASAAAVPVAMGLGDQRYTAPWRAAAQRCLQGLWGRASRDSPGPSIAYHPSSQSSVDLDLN
Method in brief: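 CHO-K1 cells stably expressing hTGR5, in PBS with IBMX and cAMP antibody, treated with half-log compound dilutions for 1 h at room temperature. cAMP measured by enzyme-fragment complementation luminescence after overnight detection; EC50 values reported.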

Mouse STC-1 cells = test: STC-1 GLP-1 assay (GLP-1 secretion); assay type: cell-based; conditions: Mouse STC-1 cells, GLP-1 secretion, 2 h; read-out: Mouse STC-1 HTRF GLP-1 Activity (EC50)
Method in brief: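 Mouse STC-1 cells were plated two days ahead in DMEM with 10% charcoal-dextran stripped FBS, then exposed to compound in HBSS with protease inhibitors, DPP-IV inhibitor and 0.1% fatty acid free BSA for 2 h at 37° C. Active GLP-1 in supernatant was quantified by HTRF; EC50 derived from 12-point half-log curves.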

EC50 (human TGR5 receptor) [nM]	EC50 (Mouse STC-1 cells) [nM]	Compound
< 100	100 to 999	N#Cc1ccc(CCNC(=O)[C@@H]2CCN2c2cc(N3CCC(CCNC(=O)NCCNC(=N)N)CC3)nc(C(F)(F)F)n2)cc1 [Compound 286, (S)-N-(4-cyanophenethyl)-1-(6-(4-(2-(3-(2-guanidinoethyl)-ureido)ethyl)piperidin-1-yl)-2-(trifluoromethyl)pyrimidin-4-yl)azetidine-2-carboxamide]
< 100	100 to 999	N#Cc1ccc(CCNC(=O)[C@@H]2CCCN2c2cc(N3CCC(OCC#CCS(=O)(=O)O)CC3)nc(C(F)(F)F)n2)cc1 [Compound 134, (S)-4-((1-(6-(2-((4-cyanophenethyl)carbamoyl)pyrrolidin-1-yl)-2-(trifluoromethyl)pyrimidin-4-yl)piperidin-4-yl)oxy)but-2-yne-1-sulfonic acid]
< 100	100 to 999	N#Cc1ccc(CCNC(=O)[C@@H]2CCCN2c2cc(N3CCC(CCC(=O)NCCS(=O)(=O)O)CC3)nc(C(F)(F)F)n2)cc1 [Compound 56, (S)-2-(3-(1-(6-(2-((4-cyanophenethyl)carbamoyl)pyrrolidin-1-yl)-2-(trifluoromethyl)pyrimidin-4-yl)piperidin-4-yl)propanamido)ethanesulfonic acid]
< 100	< 100	N=C(N)N[C@@H](CCC(=O)NCCCC1CCN(c2cc(N3CCC[C@H]3C(=O)NCCc3ccc(C(F)(F)F)cc3)nc(C(F)(F)F)n2)CC1)C(=O)O [Compound 133, (S)-2-guanidino-5-oxo-5-((3-(1-(2-(trifluoromethyl)-6-((S)-2-((4-(trifluoromethyl)phenethyl)carbamoyl)pyrrolidin-1-yl)pyrimidin-4-yl)piperidin-4-yl)propyl)amino)pentanoic acid]
< 100	< 100	N#Cc1ccc(CCNC(=O)[C@@H]2CCN2c2cc(N3CCC(CO)CC3)nc(C(F)(F)F)n2)cc1 [Compound 219, (S)—N-(4-cyanophenethyl)-1-(6-(4-(hydroxymethyl)piperidin-1-yl)-2-(trifluoromethyl)pyrimidin-4-yl)azetidine-2-carboxamide]
< 100	< 100	N#Cc1ccc(CCNC(=O)[C@@H]2CCCN2c2cc(N3CCC(CCNC(=O)NCP(=O)(O)O)CC3)nc(C(F)(F)F)n2)cc1 [Compound 372, (S)-((3-(2-(1-(6-(2-((4-cyanophenethyl)carbamoyl)pyrrolidin-1-yl)-2-(trifluoromethyl)pyrimidin-4-yl)piperidin-4-yl)ethyl)ureido)methyl)phosphonic acid]
< 100	100 to 999	N#Cc1ccc(CCNC(=O)[C@@H]2CCCN2c2cc(N3CCC(CCCC(=O)NCS(=O)(=O)O)CC3)cc(C(F)(F)F)n2)cc1 [Compound 198, (S)-(4-(1-(2-(2-((4-cyanophenethyl)carbamoyl)pyrrolidin-1-yl)-6-(trifluoromethyl)pyridin-4-yl)piperidin-4-yl)butanamido)methanesulfonic acid]

Further lines, the compound ahead of its results:

Compound	EC50 (human TGR5 receptor) [nM]	EC50 (Mouse STC-1 cells) [nM]
O=C(O)CCCC1CCN(c2cc(N3CCC[C@@H](C(=O)NCCc4ccc(C(F)(F)F)cc4)C3)nc(C(F)(F)F)n2)CC1 [Compound 330, (R)-4-(1-(2-(trifluoromethyl)-6-(3-((4-(trifluoromethyl)phenethyl)carbamoyl)piperidin-1-yl)pyrimidin-4-yl)piperidin-4-yl)butanoic acid]	< 100	100 to 999
N#Cc1ccc(CCNC(=O)[C@@H]2CCN2c2cc(N3CCC(CCCC(=O)NCCOCCNC(=N)N)CC3)nc(C(F)(F)F)n2)cc1 [Compound 284, (S)-N-(4-cyanophenethyl)-1-(6-(4-(4-((2-(2-guanidinoethoxy)-ethyl)amino)-4-oxobutyl)piperidin-1-yl)-2-(trifluoromethyl)pyrimidin-4-yl)azetidine-2-carboxamide]	< 100	100 to 999
N#Cc1ccc(CCNC(=O)[C@@H]2CCCN2c2cc(N3CCC(CCNS(=O)(=O)CCNC(=O)[C@@H](N)CS(=O)(=O)O)CC3)nc(C(F)(F)F)n2)cc1 [Compound 125, (R)-2-amino-3-((2-(N-(2-(1-(6-((S)-2-((4-cyanophenethyl)carbamoyl)-pyrrolidin-1-yl)-2-(trifluoromethyl)-pyrimidin-4-yl)piperidin-4-yl)ethyl)sulfamoyl)ethyl)amino)-3-oxopropane-1-sulfonic acid]	< 100	100 to 999
N#Cc1ccc(CCNC(=O)[C@@H]2CCN2c2cc(N3CCC(CCNS(=O)(=O)CCNC(=O)[C@@H](N)CS(=O)(=O)O)CC3)nc(C(F)(F)F)n2)cc1 [Compound 363, (R)-2-amino-3-((2-(N-(2-(1-(6-((S)-2-((4-cyanophenethyl)carbamoyl)azetidin-1-yl)-2-(trifluoromethyl)pyrimidin-4-yl)piperidin-4-yl)ethyl)sulfamoyl)ethyl)amino)-3-oxopropane-1-sulfonic acid]	< 100	< 100
COc1cc(C(F)(F)F)ccc1CCNC(=O)[C@@H]1CCN1c1cc(N2CCC(CCC(=O)NCCS(=O)(=O)O)CC2)nc(C(F)(F)F)n1 [Compound 259]	< 100	100 to 999
N#Cc1ccc(CCNC(=O)[C@@H]2CCCN2c2cc(N3CCC(CCCNC(=O)NCCS(N)(=O)=O)CC3)nc(C(F)(F)F)n2)cc1 [Compound 120, (S)-N-(4-cyanophenethyl)-1-(6-(4-(3-(3-(2-sulfamoylethyl)ureido)propyl)piperidin-1-yl)-2-(trifluoromethyl)pyrimidin-4-yl)pyrrolidine-2-carboxamide]	< 100	< 100
N#Cc1ccc(CCNC(=O)[C@@H]2CCN2c2cc(N3CCC(CCNC(=O)NCCS(N)(=O)=O)CC3)nc(C(F)(F)F)n2)cc1 [Compound 269, (S)—N-(4-cyanophenethyl)-1-(6-(4-(2-(3-(2-sulfamoylethyl)ureido)ethyl)piperidin-1-yl)-2-(trifluoromethyl)pyrimidin-4-yl)azetidine-2-carboxamide]	< 100	< 100
N#Cc1ccc(CCNC(=O)[C@@H]2CCCN2c2cc(N3CCC(CCCC(=O)NCCS(=O)(=O)O)CC3)nc(C(F)(F)F)n2)cc1 [Compound 61, (S)-2-(4-(1-(6-(2-((4-cyanophenethyl)carbamoyl)pyrrolidin-1-yl)-2-(trifluoromethyl)pyrimidin-4-yl)-piperidin-4-yl)butanamido)ethanesulfonic acid]	< 100	< 100
N#Cc1ccc(CCNC(=O)[C@@H]2CCN2c2cc(N3CCC(CCNC(=O)NCCOCCNC(=O)CS(=O)(=O)O)CC3)nc(C(F)(F)F)n2)cc1 [Compound 356, (S)-1-(1-(6-(2-((4-cyanophenethyl)carbamoyl)azetidin-1-yl)-2-(trifluoromethyl)pyrimidin-4-yl)piperidin-4-yl)-4,12-dioxo-8-oxa-3,5,11-triazatridecane-13-sulfonic acid]	< 100	100 to 999
N#Cc1ccc(CCNC(=O)[C@@H]2CCN2c2cc(N3CCC(CCNc4c(NCC(=O)O)c(=O)c4=O)CC3)nc(C(F)(F)F)n2)cc1 [Compound 302, (S)-2-((2-((2-(1-(6-(2-((4-cyanophenethyl)carbamoyl)azetidin-1-yl)-2-(trifluoromethyl)pyrimidin-4-yl)piperidin-4-yl)ethyl)amino)-3,4-dioxocyclobut-1-en-1-yl)amino)acetic acid]	< 100	< 100
N#Cc1ccc(CCNC(=O)[C@@H]2CCCN(c3cc(N4CCC(CCNC(=O)NCCC(=O)O)CC4)nc(C(F)(F)F)n3)C2)cc1 [Compound 347, (R)-3-(3-(2-(1-(6-(3-((4-cyanophenethyl)carbamoyl)piperidin-1-yl)-2-(trifluoromethyl)pyrimidin-4-yl)piperidin-4-yl)ethyl)ureido)propanoic acid]	< 100	100 to 999
COc1cc(C(F)(F)F)ccc1CCNC(=O)[C@@H]1CCCN1c1cc(N2CCC(CCCC(=O)O)CC2)nc(C(F)(F)F)n1 [Compound 34]	< 100	< 100
N#Cc1ccc(CCNC(=O)[C@@H]2CCN2c2cc(N3CCC(CCCC(=O)NCS(=O)(=O)O)CC3)nc(C(F)(F)F)n2)cc1 [Compound 250, (S)-(4-(1-(6-(2-((4-cyanophenethyl)carbamoyl)azetidin-1-yl)-2-(trifluoromethyl)pyrimidin-4-yl)piperidin-4-yl)butanamido)methanesulfonic acid]	< 100	< 100
COCC1CCN(c2cc(N3CCC[C@H]3C(=O)NCCc3ccc(C#N)cc3)nc(C(F)(F)F)n2)CC1 [Compound 24]	< 100	100 to 999
N#Cc1ccc(CCNC(=O)[C@@H]2CCCN2c2cc(N3CCC(CCNc4c(NCCS(=O)(=O)O)c(=O)c4=O)CC3)nc(C(F)(F)F)n2)cc1 [Compound 367, (S)-2-((2-((2-(1-(6-(2-((4-cyanophenethyl)carbamoyl)pyrrolidin-1-yl)-2-(trifluoromethyl)pyrimidin-4-yl)piperidin-4-yl)ethyl)amino)-3,4-dioxocyclobut-1-en-1-yl)amino)ethanesulfonic acid]	< 100	100 to 999
